Measured values from the supplement of paper PMC13380429.

What was measured:
[1] = system: A549-ACE2 infected with SARS-CoV-2; experiment: cell count relative to DMSO; higher = less toxic; details: 24 h
Caco-2 [2] = experiment: cell viability relative to DMSO; higher = less toxic; details: 72 h
Calu-3 [3] = experiment: as above; details: 72 h
HepG2 [4] = experiment: as above; details: 72 h
U2OS [5] = experiment: as above; details: 72 h
Vero E6 [6] = experiment: as above; details: 72 h
[7] = system: A549-ACE2 infected with SARS-CoV-2; experiment: SARS-CoV-2 infection rate relative to DMSO; higher = more infection; details: 24 h
A549-ACE2 [8] = experiment: phospholipidosis EC50; higher = less potent phospholipidosis inducer
A549-ACE2 [9] = experiment: drug-induced phospholipidosis relative to tamoxifen; higher = more phospholipidosis
[10] = system: A549-ACE2 infected with SARS-CoV-2; experiment: morphology score (similarity to uninfected cells); higher = more like uninfected cells; details: 24 h
Caco-2 [11] = experiment: relative viability EC50 (midpoint between 100% and the lowest measured viability); higher = less toxic; details: 72 h
HepG2 [12] = experiment: as above; details: 72 h
Caco-2 [13] = experiment: drug sensitivity score (DSS) for viability; higher = more toxic; extreme values may be limits of the assay; details: 72 h
Calu-3 [14] = experiment: as above; details: 72 h
HepG2 [15] = experiment: as above; details: 72 h
U2OS [16] = experiment: as above; details: 72 h
Vero E6 [17] = experiment: as above; details: 72 h
Calu-3 [18] = experiment: relative viability EC50 (midpoint between 100% and the lowest measured viability); higher = less toxic; details: 72 h
U2OS [19] = experiment: as above; details: 72 h
Vero E6 [20] = experiment: as above; details: 72 h

CN1CCN(C2CCN(C(=O)Nc3cc(Oc4ccc(NC(=O)C5(C(=O)Nc6ccc(F)cc6)CC5)c(F)c4)ccn3)CC2)CC1 [golvatinib]
Details	SARS-CoV-2 infection rate [%]	cell count [%]	cell viability [%]	morphology score	phospholipidosis EC50 [µM]
A549-ACE2 [8], 24 h	–	–	–	–	4.22
A549-ACE2 [8], 48 h	–	–	–	–	9.68
A549-ACE2 [8], 72 h	–	–	–	–	11.3
Caco-2 [2], 1 nM	–	–	102	–	–
Caco-2 [2], 10 nM	–	–	89.1	–	–
Caco-2 [2], 100 nM	–	–	95	–	–
Caco-2 [2], 1000 nM	–	–	87.9	–	–
Caco-2 [2], 10000 nM	–	–	44.2	–	–
Calu-3 [3], 1 nM	–	–	92.4	–	–
Calu-3 [3], 10 nM	–	–	105	–	–
Calu-3 [3], 100 nM	–	–	97.1	–	–
Calu-3 [3], 1000 nM	–	–	106	–	–
Calu-3 [3], 10000 nM	–	–	63.4	–	–
HepG2 [4], 1 nM	–	–	97.8	–	–
HepG2 [4], 10 nM	–	–	95.5	–	–
HepG2 [4], 100 nM	–	–	102	–	–
HepG2 [4], 1000 nM	–	–	77.6	–	–
HepG2 [4], 10000 nM	–	–	1.4	–	–
U2OS [5], 1 nM	–	–	96.7	–	–
U2OS [5], 10 nM	–	–	102	–	–
U2OS [5], 100 nM	–	–	97.6	–	–
U2OS [5], 1000 nM	–	–	104	–	–
U2OS [5], 10000 nM	–	–	61.2	–	–
Vero E6 [6], 1 nM	–	–	95.3	–	–
Vero E6 [6], 10 nM	–	–	97.5	–	–
Vero E6 [6], 100 nM	–	–	95	–	–
Vero E6 [6], 1000 nM	–	–	91.3	–	–
Vero E6 [6], 10000 nM	–	–	59.6	–	–
[1], 0.1 µM	–	94	–	–	–
[1], 0.3 µM	–	101	–	–	–
[1], 1 µM	–	103	–	–	–
[1], 3 µM	–	110	–	–	–
[7], 0.1 µM	107	–	–	–	–
[7], 0.3 µM	104	–	–	–	–
[7], 1 µM	95	–	–	–	–
[7], 3 µM	50	–	–	–	–
[10], 0.1 µM	–	–	–	-0.16	–
[10], 0.3 µM	–	–	–	-0.14	–
[10], 1 µM	–	–	–	0.12	–
[10], 3 µM	–	–	–	0.64	–

drug-induced phospholipidosis [%], A549-ACE2 [9]
Details	0.3 µM	0.833333 µM	3.33333 µM	6.66667 µM	10 µM	30 µM
24 h	1.8	1.61	20.9	69	79.8	76.4
48 h	3.53	3.1	11.1	42.2	75.9	–
72 h	5.78	3.08	10.8	36.2	67.2	–

Details	drug sensitivity score	relative viability EC50 [µM]
Caco-2 [11]	–	1.66
Caco-2 [13]	5	–
Calu-3 [14]	1.4	–
HepG2 [12]	–	1.63
HepG2 [15]	9	–
U2OS [16]	1.6	–
Vero E6 [17]	3.4	–

COc1ccc2c(C)nc(Nc3nc(C)c(C)c(O)n3)nc2c1 [madrasin]
Details	SARS-CoV-2 infection rate, [7] [%]	cell count, [1] [%]	cell viability, Caco-2 [2] [%]	cell viability, Calu-3 [3] [%]	cell viability, HepG2 [4] [%]	cell viability, U2OS [5] [%]	cell viability, Vero E6 [6] [%]	morphology score, [10]
1 nM	–	–	105	94.7	89.9	98.6	82.8	–
10 nM	–	–	99.2	84	95.4	98.1	99.1	–
100 nM	–	–	119	97	90.9	102	91	–
0.3 µM	90	102	–	–	–	–	–	0.29
1000 nM	–	–	101	108	92.7	98.8	98.1	–
3 µM	88	105	–	–	–	–	–	0.36
10 µM	96	102	–	–	–	–	–	0.21
10000 nM	–	–	98.3	94.6	93.5	97	111	–
30 µM	1	95	–	–	–	–	–	0.75

drug-induced phospholipidosis [%], A549-ACE2 [9]
Details	0.3 µM	0.833333 µM	3.33333 µM	6.66667 µM	10 µM	30 µM
24 h	2.49	-0.05	-3.35	-1.32	1.34	56
48 h	3.81	-2.33	-1.09	0.46	1.75	–
72 h	0.061	-7.49	0.0944	-0.243	1.1	–

Details	drug sensitivity score	relative viability EC50 [µM]
Caco-2 [11]	–	> 10
Caco-2 [13]	0	–
Calu-3 [14]	0	–
Calu-3 [18]	–	> 10
HepG2 [12]	–	> 10
HepG2 [15]	0	–
U2OS [16]	0	–
U2OS [19]	–	> 10
Vero E6 [17]	0	–
Vero E6 [20]	–	> 10
